A short description of data set [1]: In vitro peptide stability in rat brain homogenate. Type of data set: in vitro ADME. Particulars: after 24 h incubation at 37° C. in 10% rat brain homogenate; HPLC peak area vs sample incubated in PBS; read-out: % of intact peptide in rat brain homogenate. The method, then:
(§1) Peptides were prepared as a 1 μg/μl solution in water. 20 μl of the peptide solution was diluted in 80 μl of fresh human plasma or 10% rat brain homogenate (prepared in PBS). The resulting solution was incubated at 37° C. for different times and the reaction was stopped by adding a complete cocktail of protease inhibitors. The bulk of plasma and brain proteins (but none of the peptide) were precipitated in cold methanol (mix/MeOH, 4/5, v/v) during one hour at −20° C. The precipitated proteins were pelleted by centrifugation (10000 g, 10 min, 4° C.). The supernatant, containing the peptide, was concentrated 5 times under vacuum and separated by reverse-phase HPLC. The area of the peak corresponding to the intact peptide was measured and compared with an equivalent sample incubated in PBS. The results are listed in Table 1 as percentage of intact peptide after 24 h incubation at 37° C. in human plasma and in rat brain homogenate. The values compare favourably with those obtained for the reference compound of Example 8.

Data set [2] can be described thus: In vitro peptide stability in human plasma. Type of data set: in vitro ADME. The note with it: after 24 h incubation at 37° C. in fresh human plasma; HPLC peak area vs sample incubated in PBS; read-out: % of intact peptide in human plasma. The method, then:
as §1

*1 amine or outer side, *2 acyl side, *3 side chain or, on linkers, in order; H or OH if unused. Where a SMILES comes first, the peptide text is derived from it. [ ]: non-standard residue; d: D form. azaPhe = O=C(N(Cc1ccccc1)N[*:1])[*:2]; azaPro = O=C(N1CCCN1[*:1])[*:2]

Regarding `CC(=O)N[C@@H](CC(C)C)C(=O)N1CCC[C@H]1C(=O)NN(Cc1ccccc1)C(=O)N[C@@H](Cc1ccccc1)C(=O)N[C@@H](CC(=O)O)C(N)=O` [Example 5, Ac-L-P-F^a-F-D-NH2] (Ac-LP[azaPhe]FD-NH2), the values for the remaining at 24 h, 0.2 μg/μl in data set [1] and in data set [2] were 71% and 93%, respectively.

Take “Ac-LPFFD-NH2 [Example 8, reference compound]”: the remaining at 24 h, 0.2 μg/μl came out at 2% in data set [1] and 74% in data set [2].

Consider `CC(=O)N[C@@H](CC(C)C)C(=O)N1CCCN1C(=O)N[C@@H](Cc1ccccc1)C(=O)N[C@@H](Cc1ccccc1)C(=O)N[C@@H](CC(=O)O)C(N)=O` [Example 6, Ac-L-P^a-F-F-D-NH2] (Ac-L[azaPro]FFD-NH2), for which the remaining at 24 h, 0.2 μg/μl was determined as 80% in data set [1] and 93% in data set [2].

The values above are taken from patent US20060281686A1, “Aza-peptides” (priority 2002, published 2006).
